{"source": "patent EP2818467A1", "about": "“Multi-target drug compounds for the treatment of neurodegenerative disorders” (Universitat de Barcelona, priority 2013, dated 2014)", "assay_type_in_all_cases": "in vivo", "key": {"APP/PS1 mice [1]": {"tested_on": "APP/PS1 mice", "assay": "Aβ immunohistochemistry, Aβ burden in neocortex", "conditions": "5 mg/kg/day i.p. for 4 weeks, compared to vehicle-treated animals", "procedure": "(§1) Animals and treatment: The experiments were carried out on male APP/PS1 mice, which express the human mutated forms APPswe and PS1dE9, and wild-type (WT) littermates which were 5 month-old at the beginning of the study. In the present work, identification of transgenic mice was carried out as follows: genomic DNA was isolated from 1-cm tail clips and genotyped by polymerase chain reaction (PCR) technique using the PCR conditions proposed by Jackson Laboratory. Animals were maintained under standard animal housing conditions in a normal 12-h dark-light cycle with free access to food and water. The sample size for experimentation was computed using the Power and Precision software (Biostat, Englewood, NJ, USA), assuming a power of 95% and no missing data. Animal procedures were conducted according to ethical guidelines (European Community Council Directive 86/609/EEC) and approved by the local ethical committee (UB-IDIBELL). The compounds (5 mg/kg) were dissolved in 1% DMSO and 99% saline, and were injected intraperitoneally (i.p.) in a volume of 10 mL/kg body weight. Animals were treated once daily for 4 weeks with (αS,7R,11R)-(Ia), (αS,7S,11S)-(Ia), (±)-(Ib), (±)-(Ic) or the corresponding vehicle (VEH) (wild-type, n = 6; APP/PS1, n = 6, each group). After 2 days of washing period, animals were subjected to behavioral evaluation.\nTissue Collection: At the end of the behavioral testing, the animals were sacrificed and their brains were removed. One brain hemisphere was dissected on ice, immediately frozen and stored at -80 °C until processing for protein or RNA quantification. The other brain hemisphere was fixed in 4% paraformaldehyde and processed for immunohistochemistry.\nAβ immunohistochemistry: Tissue samples were embedded in paraffin and coronal sections (4 µm) were cut with a microtome. […] No immunostaining was detected in these sections. […] The Aβ burden in neocortex was calculated as the percentage of the Aβ deposition area with respect to the total area in 9 representative pictures, corresponding to the main regions where Aβ deposition is observed in APP/PS1 mice. Sections from all the APP/PS1 animals were evaluated by using the Analysis tool of the software Adobe® Photoshop® CS4.\n(§2) Densitometric quantification of glia around Aβ plaques: Astrocytic and microglial responses to Aβ deposition were evaluated by densitometric quantification of GFAP and Iba1 protein expression levels around Aβ plaques, respectively. […] Statistical analysis: Data were analyzed by two-way ANOVA with genotype and treatment or age as between factors, followed by Tukey's post hoc test when required. Aβ and glia quantifications were analyzed by one-way ANOVA followed by Tukey's post hoc test when required."}, "APP/PS1 mice [2]": {"tested_on": "APP/PS1 mice", "assay": "glial (GFAP) and Aβ double-immunofluorescence, astrocytes around Aβ plaques", "conditions": "5 mg/kg i.p. once daily for 4 weeks, FIG 3", "procedure": "as §1, with “The compounds (5 mg/kg) were dissolved in 1% DMSO and 99% saline, and were injected intraperitoneally (i.p.) in a volume of 10 mL/kg body weight. Animals were treated once daily for 4 weeks with (αS,7R,11R)-(Ia), (αS,7S,11S)-(Ia), (±)-(Ib), (±)-(Ic) or the corresponding vehicle (VEH) (wild-type, n = 6; APP/PS1, n = 6, each group). After 2 days of washing period, animals were subjected to behavioral evaluation.” left out\n(§3) Tissue Collection: At the end of the behavioral testing, the animals were sacrificed and their brains were removed. One brain hemisphere was dissected on ice, immediately frozen and stored at -80 °C until processing for protein or RNA quantification. […]\n(§4) Glial and Aβ double-immunofluorescence: De-waxed sections were stained with a saturated solution of Sudan black B (Merck) for 30 min to block the autofluorescence of lipofuscin granules present in cell bodies, then rinsed in 70% ethanol and washed in distilled water. […] After washing, the sections were incubated with Alexa488 or Alexa546 (1:400, Molecular Probes) fluorescence secondary antibodies against the corresponding host species. […]\nas §2, with “Aβ and glia quantifications were analyzed by one-way ANOVA followed by Tukey's post hoc test when required.” left out"}, "APP/PS1 mice [3]": {"tested_on": "APP/PS1 mice", "assay": "two-object recognition test (V-maze), cognitive performance", "conditions": "male APP/PS1 mice, 5 month-old, 5 mg/kg i.p. once daily for 4 weeks, FIG 1; for memory impairment in the two-object recognition test: tested after 2 days of washing period, 5 mg/kg", "procedure": "as §1, with “The compounds (5 mg/kg) were dissolved in 1% DMSO and 99% saline, and were injected intraperitoneally (i.p.) in a volume of 10 mL/kg body weight. Animals were treated once daily for 4 weeks with (αS,7R,11R)-(Ia), (αS,7S,11S)-(Ia), (±)-(Ib), (±)-(Ic) or the corresponding vehicle (VEH) (wild-type, n = 6; APP/PS1, n = 6, each group). After 2 days of washing period, animals were subjected to behavioral evaluation.” left out\nBehavioral evaluation of cognitive performance: The two-object recognition test was performed. […] On the second day, mice were placed for 9 min in the maze, where two identical objects were situated at the end of the arms, and the time that the mice spent exploring each object was recorded. […] The time that the animals spent exploring the two objects was recorded and an object recognition index was calculated as the difference between the time spent exploring the novel and the familiar object, divided by the total time spent exploring the two objects.\nas §2"}, "APP/PS1 mice [4]": {"tested_on": "APP/PS1 mice", "assay": "glial (Iba1) and Aβ double-immunofluorescence, microglia around Aβ plaques", "conditions": "5 mg/kg i.p. once daily for 4 weeks, compared to vehicle-treated APP/PS1 animals, FIG 4", "procedure": "Animals and treatment: The experiments were carried out on male APP/PS1 mice, which express the human mutated forms APPswe and PS1dE9, and wild-type (WT) littermates which were 5 month-old at the beginning of the study. In the present work, identification of transgenic mice was carried out as follows: genomic DNA was isolated from 1-cm tail clips and genotyped by polymerase chain reaction (PCR) technique using the PCR conditions proposed by Jackson Laboratory. Animals were maintained under standard animal housing conditions in a normal 12-h dark-light cycle with free access to food and water. […]\nas §3, §4"}}, "note": "Entries after “also recorded” stand apart in the source; their conditions may differ.", "data": [{"smiles": "CCC(C(=O)NCCCCCCCNc1c2c(nc3cc(Cl)ccc13)CCCC2)N1CCCC1=O", "note": "(racemic) [(±)-(Ib), (±)-N-{7-[(6-chloro-1,2,3,4-tetrahydroacridin-9-yl)amino]heptyl}-2-(2-oxopyrrolidin-1-yl)butanamide]", "values": [{"measurement": "Aβ burden in the cortex", "setting": "APP/PS1 mice [1]; FIG 2", "result": "tends to reduce"}, {"measurement": "number of astrocytes around Aβ plaques (GFAP/Aβ)", "setting": "APP/PS1 mice [2]", "result": "produced a tendency to reduce"}]}, {"smiles": "CCC(C(=O)NCCCCCCCNc1c2c(nc3ccccc13)CCCC2)N1CCCC1=O", "note": "(racemic) [(±)-(Ic), (±)-N-{7-[(1,2,3,4-tetrahydroacridin-9-yl)amino]heptyl}-2-(2-oxopyrrolidin-1-yl)butanamide]", "values": [{"measurement": "recognition index", "setting": "APP/PS1 mice [3]; compared to vehicle-treated animals", "result": "significantly increased"}, {"measurement": "memory impairment in the two-object recognition test", "setting": "APP/PS1 mice [3]", "result": "did not exhibit memory impairment; also recorded: reverse the memory impairment"}, {"measurement": "Aβ burden in the cortex", "setting": "APP/PS1 mice [1]; FIG 2", "result": "tends to reduce"}]}, {"smiles": "CC[C@@H](C(=O)NCCCCCCCNc1c2c(nc3cc(Cl)ccc13)C[C@@H]1C=C(C)C[C@H]2C1)N1CCCC1=O", "note": "[(αS,7R,11R)-(Ia), (+)-(αS,7R,11R)-N-{7-[(3-chloro-6,7,10,11-tetrahydro-9-methyl-7,11-methanocycloocta[b]quinolin-12-yl)amino]heptyl}-2-(2-oxopyrrolidin-1-yl)butanamide]", "values": [{"measurement": "Aβ burden in the cortex", "setting": "APP/PS1 mice [1]; FIG 2", "result": "tends to reduce"}, {"measurement": "number of astrocytes around Aβ plaques (GFAP/Aβ)", "setting": "APP/PS1 mice [2]", "result": "produced a tendency to reduce"}]}, {"smiles": "CC[C@@H](C(=O)NCCCCCCCNc1c2c(nc3cc(Cl)ccc13)C[C@H]1C=C(C)C[C@@H]2C1)N1CCCC1=O", "note": "[(αS,7S,11S)-(Ia), (-)-(αS,7S,11S)-N-{7-[(3-chloro-6,7,10,11-tetrahydro-9-methyl-7,11-methanocycloocta[b]quinolin-12-yl)amino]heptyl}-2-(2-oxopyrrolidin-1-yl)butanamide]", "values": [{"measurement": "memory impairment in the two-object recognition test", "setting": "APP/PS1 mice [3]", "result": "did not exhibit memory impairment; also recorded: reverse the memory impairment"}, {"measurement": "Aβ burden in the cortex", "setting": "APP/PS1 mice [1]; FIG 2, 5 mg/kg/day", "result": "tends to reduce; also recorded: reduction in the cortical Aβ plaques deposition"}, {"measurement": "number of astrocytes around Aβ plaques (GFAP/Aβ)", "setting": "APP/PS1 mice [2]", "result": "produced a tendency to reduce"}, {"measurement": "number of microglial cells associated with Aβ plaques (Iba1/Aβ)", "setting": "APP/PS1 mice [4]", "result": "decreased microglial reaction"}]}]}
